Counter-ions that a name gives are not always drawn.
Key:
[1] = Tank mix compatibility of dicamba salts with potassium glyphosate; format: physicochemical; conditions: for g to crystals: grams dicamba a.e. (35.8% a.e. salt solution) added to […] Roundup POWERMAX solution to induce crystallization or precipitation
From the text: The weight of the dicamba solution that caused precipitation was noted. The results are reported in Table 12a below where “salt” refers to the dicamba salt and “g to crystals” refers to the total amount of grams of dicamba a.e. that were required to induce crystallization or precipitation of crystals.

[2] = Aqueous solubility of dicamba acid and dicamba salts; conditions: for solubility 20° C. a.e. / solubility 20° C. a.i.: equilibrated 5 to 7 days at 20° C.; for solubility 20° C. a.e.: 0.45 micron filter, HPLC
From the text: The solution was then passed through a 0.45 micron filter and assayed by HPLC for soluble dicamba.

[3] = Distillation volatility: dicamba in distillate by HPLC/MS; format: physicochemical; conditions: for ppm Dicamba in distillate: Table 4h summary, 5% a.e. salt solution
Method: The pH was measured on a standard Orion Model 320 pH meter of each neat solution.
Simple distillation using a short path still was used to collect the water distillate containing the dicamba in the vapor phase of the salt solutions. A 50 mL distillation flask was used. The distillation receiver was a “cow” type with four 2 mL graduated sections. The solutions were heated at the 30% setting of the GlassCol heating unit and the boiling point of each distillation was noted. The first 2 ml of distillate was collected, and the receiver rotated to avoid collection of any further distillate in that section as the distillation flask cooled. The 2 mL sample was quantitatively transferred by pipette to HPLC vials for later analysis. Between each distillation the distillation apparatus was washed with 10 volumes of tap water, 10 volumes of distilled water, rinsed with acetone, and dried in a 60° C. oven. Each distillation was run in triplicate.
The distillate was collected and analyzed for dicamba concentration using HPLC/Mass Spectroscopy (MS). The HPLC column was an Agilent Zorbax Eclipse XDB-C8, 4.6×150 mm, 5u, PN 993967-90. Mobile phase A was 0.1% formic acid in D.I. water. Mobile phase B was 0.1% formic acid in acetonitrile. A flow rate of 1.2 mL/min was used and an injection volume of 5, 10, 15 or 25 ul was used depending on the dicamba level in the sample. The following gradient was used: […]
The MS parameters were as follows: Type SIR; ES-ion mode; 0.05 second inter channel delay; 0.05 second interscan time; 0.5 span (Da); 10 minutes elapsed time; and 6-6000 ppb calibration range. […] Channel 2 mass was 177 (Da); Dwell was 0.25(s); Cone(V)=tune and; 0.05(s) delay.

In the case of COc1c(Cl)ccc(Cl)c1C(=O)O [Dicamba sodium salt, reference compound], the “crystallization in the presence of potassium glyphosate” value ([1]; 35.8% a.e. dicamba salt solution added to […] Roundup POWERMAX solution) is reported as “induced crystallization”, the g to crystals [1] is reported as 13.6 g and the “aqueous solubility Approximate g a.e./L @20° C.” value ([2]; 20° C., listed as sodium salt) is reported as 364 g a.e./L. The “aqueous solubility wt % a.e. @20° C.” value ([2]; 20° C., listed as sodium salt) was 36.3 wt % a.e, the “crystal formation on drying on a glass surface” value ([2]; Example 10) was “formed crystals very readily” and the “Comments (crystal formation)” value ([2]; Table 10a, dicamba salt solutions, listed as Na) was “Crystals form easily”. The “solubility 0° C. a.e.” value ([2]; Table 10a, dicamba salt, equilibrated 5 to 7 days at 0° C., acid equivalent, listed as Na) was 33 wt %, the “solubility 0° C. a.i.” value ([2]; Table 10a, dicamba salt, equilibrated 5 to 7 days at 0° C., active ingredient, listed as Na) was 36.3 wt % and the “solubility 20° C. a.e.” value ([2]; Table 10a, dicamba salt, acid equivalent, listed as Na) was 36.3 wt %. For the same compound, the “solubility 20° C. a.i.” value ([2]; Table 10a, dicamba salt, active ingredient, listed as Na) was 40.3 wt %, the “aqueous solubility wt % a.e. @20° C.” value ([2]; Table 10b, second experiment, dicamba acid and salts, 20° C., listed as sodium salt) was 36.3 wt % a.e and the “aqueous solubility wt % a.i. @20° C.” value ([2]; Table 10b, second experiment, dicamba salts, 20° C., listed as sodium salt) was 40.3 wt % a.i. The “Mean Dicamba in Distillate” value ([3]; 1% a.e. dicamba, solution pH 3.31) was 3.42 ppm, the “Mean Dicamba in Distillate” value ([3]; 1% a.e. dicamba, solution pH 4.25) was 0.70 ppm and the “Mean Dicamba in Distillate” value ([3]; 1% a.e. dicamba, solution pH 6.19) was 0.13 ppm. The “Mean Dicamba in Distillate” value ([3]; 1% a.e. dicamba, solution pH 9.82) was 0.09 ppm, the “Mean Dicamba in Distillate” value ([3]; 1% a.e. dicamba, solution pH 11.15) was 0.06 ppm and the “Mean Dicamba in Distillate” value ([3]; 2% a.e. dicamba, solution pH 3.33) was 5.74 ppm. For the same compound, the “Mean Dicamba in Distillate” value ([3]; 2% a.e. dicamba, solution pH 4.29) was 1.39 ppm, the “Mean Dicamba in Distillate” value ([3]; 2% a.e. dicamba, solution pH 6.28) was 0.32 ppm and the “Mean Dicamba in Distillate” value ([3]; 2% a.e. dicamba, solution pH 9.93) was 0.16 ppm. The “Mean Dicamba in Distillate” value ([3]; 2% a.e. dicamba, solution pH 11.50) was 0.15 ppm, the “Mean Dicamba in Distillate” value ([3]; 5% a.e. dicamba, solution pH 3.36) was 11.57 ppm and the “Mean Dicamba in Distillate” value ([3]; 5% a.e. dicamba, solution pH 4.34) was 2.36 ppm. For the same compound, the “Mean Dicamba in Distillate” value ([3]; 5% a.e. dicamba, solution pH 6.32) was 0.77 ppm, the “Mean Dicamba in Distillate” value ([3]; 5% a.e. dicamba, solution pH 10.36) was 0.45 ppm and the “Mean Dicamba in Distillate” value ([3]; 5% a.e. dicamba, solution pH 12.15) was 0.22 ppm. The “ppm Dicamba in distillate” value ([3]; pH 6.32) was 0.8 ppm.

With NCCO [MEA] the Comment ([1]; dicamba salt solution added to […] Roundup POWERMAX solution) was “Clear solution, no precipitate”, the g to crystals [1] was greater than 34.2 g and the “solubility 20° C. a.e.” value ([2]; Table 10a, dicamba salt, acid equivalent) was greater than 71.9 wt %. The “solubility 20° C. a.i.” value ([2]; Table 10a, dicamba salt, active ingredient) was greater than 91.8 wt %, the “ppm Dicamba in distillate” value ([3]; pH 6.87) was 0.5 ppm and the “ppm Dicamba in distillate” value ([3]; pH 8.03) was 0.3 ppm.

Reference: patent US11503826B2, “Low volatility auxin herbicide formulations” (priority 2009, dated 2022)
